Like-named read-outs stand apart in the source and are kept apart here.
Key:
cannabinoid receptors = conditions: cited from earlier work; for effect on blood pressure, intra-arterially administered (Adams): intra-arterial; for effect on blood pressure, intravenously administered (Adams): intravenous
cremaster arterioles = test: Intravital microscopy of cremaster muscle arterioles; format: in vivo, C57-BL mice
Protocol: Male C57-BL mice age 7-8 weeks and weighing approximately 20 grams are anesthetized with an intramuscular injection of 100 to 150 microliters of a mixture of ketamine and xylazine (87 mg ketamine and 13 mg xylazine per ml) based on the weight of the individual animal. The body temperature was maintained at about 37° C. by convective heating. The animal is supinated, a midline incision is made in the ventrocervical region, and the underlying tissues are bisected laterally to expose the trachea. A tracheotomy is performed and the animal is intubated directly with PE50 tubing to facilitate ventilation. The wound is then closed.
The left rear limb is incised to expose the femoral neurovascular bundle and the femoral vein is isolated and catheterized with PE10 tubing attached to a syringe containing normal saline. The animal is then placed on a specially designed surgery board and the right testicle within the scrotum is oriented over a translumination observation window contained in the surgery board. The scrotum is irrigated with warmed (about 37° C.) physiological saline (4.3 mM NaHCO3, 126.4 mM NaCl, 0.9 mM KCl, 0.4 mM CaCl2, 0.2 mM MgSO4). The scrotum is incised medially and the underlying fascia is bluntly dissected to expose the testicle. The apical portion of the cremaster muscle is pinned distally on the surgery board and the cremaster muscle is incised along its long axis to expose the testicle. The testicle is then gently forced back into the inguinal canal, allowing the cremaster muscle to be pinned evenly around the translumination window.
(§1) All experiments are carried out using an industrial grade microscope (Nikon MM-11) with two light sources, bright field (OptiQuip 75 W xenon) and fluorescent (Nikon 150 W mercury). The primary camera assembly has a chilled charged coupled device (CCD) and controller (Hamamastu C5985). The secondary camera assembly has a CCD camera (MTI CCD72) in conjunction with an intensifier (MTI […]). Experiments are viewed on a video monitor and recorded on a digital video recorder for off-line processing.
The prepared animal, as described above in Examples 1 and 2, is placed on the stage of the microscope on the surgery board with the translumination window. Exposed tissues are irrigated with warmed physiological saline through which a N2/CO2 (95%/5%) mixture is bubbled. The tissue is allowed to equilibrate until normal blood flow is observed or perfusate flow stabilizes, during which time the tissue is scanned at 1-X for A1-A4 arterioles. The arterioles are then tested for physiological tone by the topical administration of 0.1 mM adenosine (positive control).
(§2) After the arteriole returns to resting diameter (about 10 minutes) the tissue is treated topically with test chemical drugs or the drugs are administered systemically and the responses of the arterioles are viewed at 20× magnification. Topical treatment is by directly applying a vehicle solution (1:1:18 stepantex:ethanol:saline) or a drug plus vehicle solution. Systemic treatments in the whole animal are administered through the femoral vein catheter. The arteriole is video recorded during the entire procedure for off-line analysis. The blood pressure is monitored throughout the procedure utilizing a 1.4 F (0.56 mm) Millar catheter pressure transducer inserted into the left ventricle via the aorta. Systolic and diastolic blood pressure, and heart rate are recorded. Drug dosing regimens for the animals are based on literature values or values experimentally determined via drug titration curves on a mg/kg basis.
The video images of Example 3 are analyzed off-line by first converting the digital AVI files into digital image files followed by analysis using MetaMorph software (Universal Imaging Co.) on a Dell Optiplex GX-1. Calibration of the software is done using a micrometer slide and measurements are defined in micrometers/pixel. […]

[1] = rats subsequently bled; doubled from about 30 minutes; cited from earlier work
mesenteric arterioles = test: Intravital microscopy of mesenteric arterioles; format: in vivo, C57-BL mice; conditions: topical
Protocol: Animals as described in Example 1 are prepared for surgery as described in Example 1. The animal is supinated on the surgery board so that the ventral portion of the animal faces the observation window. Upon irrigation with warmed physiological saline, a midline incision is made through the linea alba. A loop of small intestine from the lower duodenal segment is extracted and pinned around the observation window, with the pins passing through the proximal mesentery and not through the intestine proper.
as §1, with “processing. […]” for “processing.”
as §2, with “Topical treatment is by directly applying a vehicle solution (1:1:18 stepantex:ethanol:saline) or a drug plus vehicle solution. Systemic treatments in the whole animal are administered through the femoral vein catheter.” left out
The video images of Example 3 are analyzed off-line by first converting the digital AVI files into digital image files followed by analysis using MetaMorph software (Universal Imaging Co.) on a Dell Optiplex GX-1. […]
Data analysis is carried out using GraphPad, Prism software. […] Time course curves are fit using non-linear regression from which the rate of vessel constriction or dilation is calculated. […]

[2] = cited from earlier work; for changes in blood pressure or renal function (Dilger): therapeutic doses for 15 days, healthy young or elderly subjects
[3] = systemically administered, 2 mg/kg NS-398

CCCCC/C=C\C/C=C\C/C=C\C/C=C\CCCC(=O)NCCO [ANA, arachidonyl ethanolamide]
effect on blood pressure (Kunos, U.S. Pat. No. 5,939,429) (cannabinoid receptors; in vivo): causes hypotension | change in cremaster arteriolar diameter (FIG. 5B) (cremaster arterioles; systemically administered, by about 200 seconds post-administration): causes a dilatation of cremaster arterioles | change in cremaster arteriolar diameter (FIG. 5A) (cremaster arterioles; topically administered, by about 200 seconds post-administration): causes a dilatation of cremaster arterioles

CCCCCCC(C)(C)c1cc(O)c2c(c1)OC(C)(C)[C@@H]1CC=C(CO)C[C@@H]21 [HU-210]
survival time (Wagner) [1]: ~60 min

CS(=O)(=O)Nc1ccc([N+](=O)[O-])cc1OC1CCCCC1 [NS-398, N-(2-cyclohexyloxy-4-nitrophenyl) methane sulphonamide]
initial increase in arteriolar diameter (FIG. 2) (cremaster arterioles; [3]): ~8% | time to return to baseline diameter (FIG. 2) (cremaster arterioles; [3]): ≤ 3 min

CCCCCc1cc(O)c2c(c1)OC(C)(C)[C@@H]1CC=C(C)C[C@@H]21 [THC, Δ^8-tetrahydrocannabinol]
effect on blood pressure, intra-arterially administered (Adams) (cannabinoid receptors): produced an increase in blood pressure indicative of vasoconstriction | effect on blood pressure, intravenously administered (Adams) (cannabinoid receptors): transient increase in blood pressure that lasted only about one minute and that was followed by a more prolonged hypotensive response | effect on blood pressure, intravenously administered (Adams) (cannabinoid receptors; listed as Δ^8-tetrahydrocannabinol): caused decreases in blood pressure | survival time (Wagner) [1]: ~60 min | time post-administration of return to baseline diameter (FIG. 3B) (cremaster arterioles; systemic, 12 mg/kg THC alone): about 30 seconds | initial mild constriction of arterioles (FIG. 3B) (cremaster arterioles; systemic, initial 100 seconds): about 15% | response of cremaster arterioles to topical application (FIG. 3A) (cremaster arterioles; topical): mirrors that of the response to systemic administration of THC | duration of initial brief constriction (FIG. 4) (mesenteric arterioles): less than 5 seconds | response of mesenteric arterioles (FIG. 4) (mesenteric arterioles): biphasic response | time post administration of return to baseline (FIG. 4) (mesenteric arterioles): about 100 seconds

Nc1ncnc2c1ncn2[C@@H]1O[C@H](CO)[C@@H](O)[C@H]1O [adenosine]
change in arteriole diameter (FIG. 1B) (cremaster arterioles; topical administration of adenosine, cremaster arteriole): Dilation of the arteriole

Cc1ccc(-c2cc(C(F)(F)F)nn2-c2ccc(S(N)(=O)=O)cc2)cc1 [celecoxib]
effect on blood pressure (Johnson) ([2]; patients, administered for six weeks): inconclusive | changes in blood pressure or renal function (Dilger) [2]: not associated with significant changes in blood pressure or renal function

O=C(O)Cc1ccccc1Nc1c(Cl)cccc1Cl [diclofenac]
changes in blood pressure or renal function (Dilger) [2]: not associated with significant changes in blood pressure or renal function

CS(=O)(=O)c1ccc(C2=C(c3ccccc3)C(=O)OC2)cc1 [rofecoxib]
effect on blood pressure (Johnson) ([2]; in vivo): found to elevate blood pressure

CCCCCc1cc(O)c2c(c1)OC(C)(C)[C@@H]1CCC(C)=C[C@@H]21 [Δ^9-tetrahydrocannabinol]
effect on blood pressure, intra-arterially administered (Adams) (cannabinoid receptors): produced an increase in blood pressure indicative of vasoconstriction | effect on blood pressure, intravenously administered (Adams) (cannabinoid receptors): caused decreases in blood pressure
